The values that follow are results of earlier work, collected in US6670393B2, “Carbamate-based cationic lipids” (Promega Biosciences, Inc., priority 1995, dated 2003).

The data set concerns cells.

Turning to `CC(C)CCC[C@@H](C)[C@H]1CC[C@H]2[C@@H]3CC=C4C[C@@H](OC(=O)NCCN(C)C)CC[C@]4(C)[C@H]3CC[C@]12C` [DC-Chol], the “toxicity to cells (reported)” value was “lower toxicity” and the “transfection (reported)” value is on record as “more efficient transfection”.
